Experimental data taken from PMC7782499, “Progerinin, an optimized progerin-lamin A binding inhibitor, ameliorates premature senescence phenotypes of Hutchinson-Gilford progeria syndrome” (Communications Biology, 2021).
Several values for one entry are separate records, joined by “and”; a condition that tells them apart may be missing. Equal entries are not always repeated.

System: HGPS cells
Assay: Nuclear deformation counting in HGPS cells
Type: cell-based, human
Parameters: key to Nuclear deformation (rate): fraction of nuclear-deformed cells, relative to DMSO-treated cells
Details: for Nuclear deformation (rate): 7 days, normalized to DMSO-treated cells; for Nuclear deformation: AG03198
Description: Fig. 1 SLC-D011 ameliorates premature aging features of HGPS. A. HEK293 cells were transiently transfected with expression vector encoding wild-type lamin A (WT-LA), lamin A-C661A (LA-C661A), progerin, or progerin-C611A. LA-C661A or progerin-C611A with point mutation in CaaX motif was predicted to be lack of farnesylation, […] that of authentic WT-LA or progerin. GFP-conjugated empty expression vector was used as a negative control. Cells were visualized at 24 h after transfection. B Transient transfection of HEK293 cells with expression vector encoding progerin or […] leads to reduced expression of H3K9me3 (n = 3 independent experiments; two-tailed Student’s t test). C. JH4 derivatives (JH010 and SLC-D011(D011)) inhibit lamin A and progerin interaction. For binding inhibition assay, bead-conjugated lamin A (GST-LA) was incubated with HEK293 cells, transiently transfected with GFP-progerin (PG), and treated with indicated chemicals. Actin was used as a loading control. PPT, co-precipitated materials with recombinant proteins; Sup supernatant. 5 μM of each chemical was used for binding assay. […] H3K9me3 reduction is a well-known marker for premature aged cells. Thus, H3K9me3 expression was evaluated by immunostaining. […] E SLC-D011 obviously suppresses progerin expression. For progerin expression analysis, each chemical was used to treat HGPS cells (AG03198, Coriell Cell Repositories) for 7 days. […] F SLC-D011 reduces the expression of progerin in other HGPS cells (AG11513 and AG11498, Coriell Cell Repositories). Treatment with SLC-D011 (2 μM) for 7 days reduced the expression of progerin and p16/INK4A but induced the expression of H3K9me3. […] G JH4, JH010, and SLC-D011 promote cell proliferation. Cell viability was determined by MTT assay after incubation with chemicals for 7 days (n = 3 independent experiments; two-tailed Student’s t test). H JH4, JH010, and SLC-D011 show similar activity for ameliorating nuclear deformation. After incubation with chemicals for 7 days, cells were stained with progerin and H3K9me3 antibodies (n = 3 independent experiment; two-tailed Student’s t test), **p < 0.001. Data are reported as mean ± SD. “Con” means Dimethyl sulfoxide (DMSO)-treated control. The data are normalized to DMSO-treated cells.
For nuclear deformation cell counting, immunofluorescence staining was performed with lamin A or progerin antibodies. After staining, abnormal nuclear membrane was counted in randomly selected fields and expressed as percentages or actual numbers of total cells counted. Abnormalities of nuclear membrane were determined based on the following: (1) lamin A/C or progerin lining was extruded or engulfed, (2) having at least one bleb, and (3) irregular contour. Counting of cells with nuclear deformation was performed by three independent observers who were blinded to chemical treatment group. To analyze histone H3K9me3 intensity or expression, images were quantified using “color histogram” function of Image J software (National Institute of Health, NIH). Fluorescence intensities were subtracted by background signals.

Row | SMILES | Nuclear deformation (rate) (AG03198, 2uM) | Nuclear deformation (rate) (AG03198, 2uM, mean) | Nuclear deformation (rate) (AG03198, 5uM) | Nuclear deformation (rate) (AG03198, 5uM, mean) | Nuclear deformation (0.1μM, Ave) [%] | Nuclear deformation (0.1μM, individual replicate) | Nuclear deformation (0.2μM, Ave) [%] | Nuclear deformation (0.2μM, individual replicate) | Nuclear deformation (0.5μM, Ave) [%] | Nuclear deformation (0.5μM, individual replicate) | Nuclear deformation (1μM, Ave) [%] | Nuclear deformation (1μM, individual replicate) | Nuclear shape (HGPS cells)
1 | CC1(C)Oc2cc3oc(=O)ccc3cc2C[C@@H]1OC/C=C/c1ccccc1 [SLC-D011] | 0.4839 and 0.6786 and 0.4545 and 0.4706 and 0.5 | 0.5146 | 0.4194 and 0.4286 and 0.303 and 0.2353 and 0.3667 and 0.2941 | 0.3412 | 36.4 | 35% and 37% and 40% and 36% and 34% | 33.2 | 33% and 34% and 30% and 36% | 25.8 | 29% and 28% and 27% and 19% and 26% | 21.4 | 23% and 20% and 22% and 19% | 
2 | CC1(C)Oc2cc3oc(=O)ccc3cc2CC1OC(=O)C=Cc1cccnc1 (centres unmarked) [JH4] | 0.7742 and 0.8571 and 0.5758 and 0.6176 and 0.8 and 0.6765 | 0.7169 | 0.5161 and 0.5357 and 0.5455 and 0.4706 and 0.5667 and 0.5294 | 0.5273 |  |  |  |  |  |  |  |  | 
3 | NC(=O)N1CCC(CC(=O)N2CCC([C@H]3c4ncc(Br)cc4CCc4cc(Cl)cc(Br)c43)CC2)CC1 [lonafarnib, reference compound] |  |  |  |  |  |  |  |  |  |  |  |  | induced donut-shaped nuclei
